In US6451831B1, “Agent for hypoalbuminaemia” (Nippon Zoki Pharmaceutical Co., Ltd., priority 2001, dated 2002):

Tests used:
[1] = test system: patients suffering from hypoalbuminaemia (serum albumin value less than 3.0 g/dL); experiment: Clinical test: serum albumin values in patients suffering from hypoalbuminaemia; assay type: in vivo, human
Experimental: The compound of the present invention (Compound 21 ) was administered to 6 patients suffering from hypoalbuminaemia (serum albumin value was less than 3.0 g/dL) at the dose of 200 mg/day (dosage for only Patient 1 was 400 mg/day). Serum albumin values were compared between before and after administration for 24 weeks (after 16 weeks in case of only Patient 2). […] In another case of tested subjects showing a normal value of serum albumin, any change of the value was not noted by the administration of the compounds of the present invention.

[2] = test system: patients; experiment: Clinical tests: toxicity and side effects; assay type: in vivo, human; settings: clinically confirmed

## CN1C(=O)NC(=O)C1O (stereo not drawn) [Compound 21, 5-Hydroxy-1-methylhydantoin]
[1]; 6 patients with hypoalbuminaemia, 200 mg/day (Patient 1: 400 mg/day), 24 weeks (Patient 2: 16 weeks), paired t-test
  Effect on serum albumin values (in words): significantly increased
[1]; Patient 1, 400 mg/day, 24 weeks, before administration 1.7 g/dL
  Serum albumin value After Administration for 24 weeks: 2.1 g/dL
[1]; Patient 2, 200 mg/day, after 16 weeks according to text, before administration 2.0 g/dL
  Serum albumin value After Administration for 24 weeks: 2.3 g/dL
[1]; Patient 3, 200 mg/day, 24 weeks, before administration 2.3 g/dL
  Serum albumin value After Administration for 24 weeks: 3.4 g/dL
[1]; Patient 4, 200 mg/day, 24 weeks, before administration 2.4 g/dL
  Serum albumin value After Administration for 24 weeks: 2.7 g/dL
[1]; Patient 5, 200 mg/day, 24 weeks, before administration 2.5 g/dL
  Serum albumin value After Administration for 24 weeks: 3.2 g/dL
[1]; Patient 6, 200 mg/day, 24 weeks, before administration 2.7 g/dL
  Serum albumin value After Administration for 24 weeks: 3.0 g/dL
[1]; mean of 6 patients, before administration 2.3 ± 0.2 g/dL, p < 0.01, paired t-test
  Serum albumin value After Administration for 24 weeks, Mean Value: 2.8 ± 0.2 g/dL
[2]
  Toxicity and side effects (in words): low toxicity and lower side effects
